This note sets out measurements from PMC10184535, “An HR2-Mimicking Sulfonyl-γ-AApeptide Is a Potent Pan-coronavirus Fusion Inhibitor with Strong Blood–Brain Barrier Permeability, Long Half-Life, and Promising Oral Bioavailability” (ACS Central Science, 2023).

pIC50: −log10 of the molar value.

The test system of this assay is authentic SARS-CoV-2 Delta variant. The conditions noted are these: 48 h.

By pIC50 is commonly meant −log10 of the IC50, conventionally taken in molar units. High values mean a small IC50, low ones a large IC50. For `CC[C@H](C)[C@H](NC(=O)[C@H](C)NC(=O)[C@H](CCC(=O)O)NC(=O)[C@H](CCC(=O)O)NC(=O)[C@H](CC(C)C)NC(=O)[C@H](CCCCN)NC(=O)[C@H](CCCCN)NC(=O)[C@H](CCSC)NC(=O)[C@H](CCC(=O)O)NC(=O)[C@H](Cc1ccc(O)cc1)NC(=O)[C@H](CCC(=O)O)NC(=O)[C@H](CC(C)C)NC(=O)[C@H](CC(=O)O)NC(=O)[C@H](CC(C)C)NC(=O)[C@H](Cc1ccccc1)NC(=O)[C@@H](NC(=O)[C@@H](NC(=O)[C@H](CC(N)=O)NC(=O)[C@@H](NC(=O)[C@H](CCC(N)=O)NC(=O)[C@H](CC(=O)O)NC(=O)[C@H](CC(C)C)NC(=O)[C@@H](N)CO)[C@@H](C)CC)C(C)C)[C@@H](C)O)C(=O)N[C@@H](CCCCN)C(=O)N[C@@H](CCCCN)C(=O)N[C@@H](CC(C)C)C(=O)N[C@@H](CCC(=O)O)C(=O)N[C@@H](CCC(=O)O)C(=O)N[C@@H](CO)C(=O)N[C@@H](Cc1ccc(O)cc1)C(=O)N[C@H](C(=O)N[C@@H](CC(=O)O)C(=O)N[C@@H](CC(C)C)C(=O)N[C@@H](CCCCN)C(=O)N[C@@H](CCC(=O)O)C(=O)N[C@@H](CC(C)C)C(=O)O)[C@@H](C)CC` [EK1], the pIC50 was 5.54.
